Assay results reported in PMC10042540, “Targeting oncogenic KRasG13C with nucleotide-based covalent inhibitors” (eLife, 2023).

How the values were obtained:
tErk = experiment: Electroporation into HeLa cells, western blot quantification; type: cell-based, human; details: for tErk mean fold change: mean of cell lysates
Description: (§1) HeLa cells were obtained from the American Type Culture Collection (ATCC) and were cultured in DMEM medium (Gibco) supplemented with 10% fetal bovine serum (FBS) (PAN-Biotech) and 1% penicillin/streptomycin (Gibco). Cells were cultured in a humidified incubator at 37 °C in the presence of 5% CO2. The identity of the cells was validated by STR profiling and the cells were tested negative for mycoplasma contamination.
(§2) Electroporation of full-length KRas constructs (KRasWT, KRasG13C, KRasG13C-edaGDP, KRasG13C:acetyledaGDP and KRasG13C-edaGppCp) was performed based on the protocol described by [Alex et al., 2019] using the Neon Transfection System Kit (Thermo Fisher). For electroporation, 3 million cells per experiment were harvested by trypsinization, washed with PBS, and resuspended in 85 µL of the electroporation buffer R (Thermo Fisher). Increasing amounts of recombinant protein samples for each construct (0, 50, 100, 200 and 300 µg) were diluted 1:1 in buffer R followed by the addition of 30 µL of this protein master mix to the cell suspension. This cellular slurry was loaded into a […] Neon Pipette Tip (Thermo Fisher) and electroporated with 2x35 ms pulses at 1000 V. After electroporation, the cells were washed twice with PBS (15 mL) to remove non-internalized extracellular protein and the cell pellet was resuspended in 2 mL complete growth media. Cells were transferred into six-well tissue culture plates (Sarstedt) and incubated for 24 hr at 37 °C and 5% CO2 in a humidified incubator for recovery before being processed for western blotting analysis.
(§3) After recovery of the electroporation, cells were washed twice with ice-cold PBS and lysed in 100 µL of phosphatase and protease inhibitor containing RIPA buffer (Cell Signaling Technology). Cells were incubated on ice for 30 min and then harvested by scraping followed by centrifugation at 14,000 rpm for 10 min at 4 °C. Protein concentrations were determined using the Pierce BCA protein assay (Thermo) following the manufacturer’s recommended procedure. Equal amounts of protein (10 µg) were analyzed by SDS-PAGE and transferred to Immobilon-FL PVDF membranes (Merck Millipore) using Pierce 1-step transfer buffer (Thermo) and the Pierce Power Blotter (Thermo). Membranes were washed with ddH2O for 5 min, blocked with OdysseyBlocking Buffer TBS (Li-Cor) for 1 hr at room temperature and then incubated with primary antibodies diluted in OdysseyBlocking Buffer TBS overnight at 4 °C with gentle agitation. KRas (Sigma Aldrich, SAB1404011-100UG), pcRafS338 (CST, 9427), tAkt1 (CST, 2938), pAktS473 (CST, 4060), tErk (CST, 4696), pErkT202/Y204 (CST, 4370), pS6S235/236 (CST, 4858), and β-actin (CST, 4970/Sigma-Aldrich, A5441) antibodies were used to detect the individual proteins. After primary antibody incubation, membranes were washed three times with TBS-T (50 mM Tris, 150 mM NaCl, 0.05% Tween 20, pH 7.4) for 5 min before being incubated with secondary antibodies (anti-mouse IgG (H+L) (DyLight 680 Conjugate) (CST, 5470) / anti-rabbit IgG (H+L) (DyLight 800 4 X PEG Conjugate) (CST, 5151)) diluted in OdysseyBlocking Buffer TBS for 1 hr at room temperature with gentle agitation. After secondary antibody incubation, the membranes were washed three times for 5 min with TBS-T and then scanned using an OdysseyCLx imaging system (Li-Cor). Quantification of protein levels from western blots was performed using Empiria Studio (Li-Cor) (Figure 3B, C, Figure 3—figure supplements 6–9).

pS6S235/236 = experiment: as above; type: cell-based, human; details: for pS6 mean fold change: mean of cell lysates
Description: as §1, §2, §3

pAktS473 = experiment: as above; type: cell-based, human; details: for pAkt mean fold change: mean of cell lysates
Description: as §1, §2, §3

pcRafS338 = experiment: as above; type: cell-based, human; details: for pcRaf mean fold change: mean of cell lysates
Description: as §1, §2, §3

pErkT202/Y204 = experiment: as above; type: cell-based, human; details: for pErk mean fold change: mean of cell lysates
Description: as §1, §2, §3

tAkt1 = experiment: as above; type: cell-based, human; details: for tAkt mean fold change: mean of cell lysates
Description: as §1, §2, §3

[1] = tested on: Ras pathway (pcRaf, pAkt, pErk, pS6); experiment: Electroporation into HeLa cells, western blot of downstream signalling; type: cell-based, human; details: electroporation of 50-300 µg protein
Description: as §1, §2
After recovery of the electroporation, cells were washed twice with ice-cold PBS and lysed in 100 µL of phosphatase and protease inhibitor containing RIPA buffer (Cell Signaling Technology). Cells were incubated on ice for 30 min and then harvested by scraping followed by centrifugation at 14,000 rpm for 10 min at 4 °C. Protein concentrations were determined using the Pierce BCA protein assay (Thermo) following the manufacturer’s recommended procedure. Equal amounts of protein (10 µg) were analyzed by SDS-PAGE and transferred to Immobilon-FL PVDF membranes (Merck Millipore) using Pierce 1-step transfer buffer (Thermo) and the Pierce Power Blotter (Thermo). Membranes were washed with ddH2O for 5 min, blocked with OdysseyBlocking Buffer TBS (Li-Cor) for 1 hr at room temperature and then incubated with primary antibodies diluted in OdysseyBlocking Buffer TBS overnight at 4 °C with gentle agitation. […] Quantification of protein levels from western blots was performed using Empiria Studio (Li-Cor) (Figure 3B, C, Figure 3—figure supplements 6–9).

SOS = experiment: Guanine nucleotide-exchange factor assay (mantdGDP fluorescence); type: biochemical
Description: SOS-catalysed nucleotide exchange was monitored at 25 °C in a FluoroMax-3 spectrofluorometer (excitation at 360 nm, emission at 440 nm) in 20 mM HEPES (pH 7.5), 100 mM NaCl, 2 mM MgCl2, and 1 mM TCEP. 5 µM KRas1-169 was mixed with 10 µM mantdGDP and subsequently with different concentrations of SOS (0.25 µM and 0.5 µM) (Figure 3A; Figure 3—figure supplement 1).

Substance: KRasG13C: recombinant oncogenic KRasG13C mutant protein, GDP-bound
- tErk fold change (tErk; 50 µg, Cell lysate 1): 0.88
- tErk fold change (tErk; 50 µg, Cell lysate 2): 1.05
- tErk fold change (tErk; 50 µg, Cell lysate 3): 0.99
- tErk mean fold change (tErk; 50 µg): 0.97
- tErk fold change (tErk; 100 µg, Cell lysate 1): 0.44
- tErk fold change (tErk; 100 µg, Cell lysate 2): 1.04
- tErk fold change (tErk; 100 µg, Cell lysate 3): 1.00
- tErk mean fold change (tErk; 100 µg): 0.83
- tErk fold change (tErk; 200 µg, Cell lysate 1): 0.50
- tErk fold change (tErk; 200 µg, Cell lysate 2): 1.05
- tErk fold change (tErk; 200 µg, Cell lysate 3): 0.89
- tErk mean fold change (tErk; 200 µg): 0.81
- tErk fold change (tErk; 300 µg, Cell lysate 1): 0.97
- tErk fold change (tErk; 300 µg, Cell lysate 2): 1.08
- tErk fold change (tErk; 300 µg, Cell lysate 3): 0.89
- tErk mean fold change (tErk; 300 µg): 0.98
- pS6 fold change (pS6S235/236; 50 µg, Cell lysate 1): 1.14
- pS6 fold change (pS6S235/236; 50 µg, Cell lysate 2): 1.57
- pS6 fold change (pS6S235/236; 50 µg, Cell lysate 3): 1.40
- pS6 mean fold change (pS6S235/236; 50 µg): 1.37
- pS6 fold change (pS6S235/236; 100 µg, Cell lysate 1): 0.95
- pS6 fold change (pS6S235/236; 100 µg, Cell lysate 2): 1.80
- pS6 fold change (pS6S235/236; 100 µg, Cell lysate 3): 1.21
- pS6 mean fold change (pS6S235/236; 100 µg): 1.32
- pS6 fold change (pS6S235/236; 200 µg, Cell lysate 1): 1.17
- pS6 fold change (pS6S235/236; 200 µg, Cell lysate 2): 2.22
- pS6 fold change (pS6S235/236; 200 µg, Cell lysate 3): 1.06
- pS6 mean fold change (pS6S235/236; 200 µg): 1.48
- pS6 fold change (pS6S235/236; 300 µg, Cell lysate 1): 1.44
- pS6 fold change (pS6S235/236; 300 µg, Cell lysate 2): 2.42
- pS6 fold change (pS6S235/236; 300 µg, Cell lysate 3): 1.24
- pS6 mean fold change (pS6S235/236; 300 µg): 1.70
- pAkt fold change (pAktS473; 50 µg, Cell lysate 1): 1.68
- pAkt fold change (pAktS473; 50 µg, Cell lysate 2): 1.22
- pAkt fold change (pAktS473; 50 µg, Cell lysate 3): 2.21
- pAkt mean fold change (pAktS473; 50 µg): 1.70
- pAkt fold change (pAktS473; 100 µg, Cell lysate 1): 3.58
- pAkt fold change (pAktS473; 100 µg, Cell lysate 2): 2.56
- pAkt fold change (pAktS473; 100 µg, Cell lysate 3): 1.82
- pAkt mean fold change (pAktS473; 100 µg): 2.65
- pAkt fold change (pAktS473; 200 µg, Cell lysate 1): 4.98
- pAkt fold change (pAktS473; 200 µg, Cell lysate 2): 2.01
- pAkt fold change (pAktS473; 200 µg, Cell lysate 3): 1.89
- pAkt mean fold change (pAktS473; 200 µg): 2.96
- pAkt fold change (pAktS473; 300 µg, Cell lysate 1): 4.64
- pAkt fold change (pAktS473; 300 µg, Cell lysate 2): 3.64
- pAkt fold change (pAktS473; 300 µg, Cell lysate 3): 1.72
- pAkt mean fold change (pAktS473; 300 µg): 3.33
- pcRaf fold change (pcRafS338; 50 µg, Cell lysate 1): 1.43
- pcRaf fold change (pcRafS338; 50 µg, Cell lysate 2): 2.59
- pcRaf fold change (pcRafS338; 50 µg, Cell lysate 3): 1.91
- pcRaf mean fold change (pcRafS338; 50 µg): 1.98
- pcRaf fold change (pcRafS338; 100 µg, Cell lysate 1): 1.55
- pcRaf fold change (pcRafS338; 100 µg, Cell lysate 2): 4.23
- pcRaf fold change (pcRafS338; 100 µg, Cell lysate 3): 1.55
- pcRaf mean fold change (pcRafS338; 100 µg): 2.44
- pcRaf fold change (pcRafS338; 200 µg, Cell lysate 1): 1.46
- pcRaf fold change (pcRafS338; 200 µg, Cell lysate 2): 6.14
- pcRaf fold change (pcRafS338; 200 µg, Cell lysate 3): 1.74
- pcRaf mean fold change (pcRafS338; 200 µg): 3.11
- pcRaf fold change (pcRafS338; 300 µg, Cell lysate 1): 1.29
- pcRaf fold change (pcRafS338; 300 µg, Cell lysate 2): 6.29
- pcRaf fold change (pcRafS338; 300 µg, Cell lysate 3): 1.50
- pcRaf mean fold change (pcRafS338; 300 µg): 3.03
- pErk fold change (pErkT202/Y204; 50 µg, Cell lysate 1): 5.54
- pErk fold change (pErkT202/Y204; 50 µg, Cell lysate 2): 1.80
- pErk fold change (pErkT202/Y204; 50 µg, Cell lysate 3): 3.53
- pErk mean fold change (pErkT202/Y204; 50 µg): 3.62
- pErk fold change (pErkT202/Y204; 100 µg, Cell lysate 1): 6.18
- pErk fold change (pErkT202/Y204; 100 µg, Cell lysate 2): 2.89
- pErk fold change (pErkT202/Y204; 100 µg, Cell lysate 3): 3.58
- pErk mean fold change (pErkT202/Y204; 100 µg): 4.22
- pErk fold change (pErkT202/Y204; 200 µg, Cell lysate 1): 6.87
- pErk fold change (pErkT202/Y204; 200 µg, Cell lysate 2): 3.48
- pErk fold change (pErkT202/Y204; 200 µg, Cell lysate 3): 4.30
- pErk mean fold change (pErkT202/Y204; 200 µg): 4.88
- pErk fold change (pErkT202/Y204; 300 µg, Cell lysate 1): 9.07
- pErk fold change (pErkT202/Y204; 300 µg, Cell lysate 2): 4.08
- pErk fold change (pErkT202/Y204; 300 µg, Cell lysate 3): 5.76
- pErk mean fold change (pErkT202/Y204; 300 µg): 6.30
- tAkt fold change (tAkt1; 50 µg, Cell lysate 1): 1.94
- tAkt fold change (tAkt1; 50 µg, Cell lysate 2): 0.93
- tAkt fold change (tAkt1; 50 µg, Cell lysate 3): 1.69
- tAkt mean fold change (tAkt1; 50 µg): 1.52
- tAkt fold change (tAkt1; 100 µg, Cell lysate 1): 2.66
- tAkt fold change (tAkt1; 100 µg, Cell lysate 2): 0.74
- tAkt fold change (tAkt1; 100 µg, Cell lysate 3): 1.08
- tAkt mean fold change (tAkt1; 100 µg): 1.49
- tAkt fold change (tAkt1; 200 µg, Cell lysate 1): 2.05
- tAkt fold change (tAkt1; 200 µg, Cell lysate 2): 1.29
- tAkt fold change (tAkt1; 200 µg, Cell lysate 3): 1.44
- tAkt mean fold change (tAkt1; 200 µg): 1.59
- tAkt fold change (tAkt1; 300 µg, Cell lysate 1): 1.78
- tAkt fold change (tAkt1; 300 µg, Cell lysate 2): 1.44
- tAkt fold change (tAkt1; 300 µg, Cell lysate 3): 1.65
- tAkt mean fold change (tAkt1; 300 µg): 1.62
- downstream signalling (pcRaf, pAkt, pErk, pS6) [1]: concentration-dependent activation of the downstream signalling
- SOS-catalysed nucleotide exchange (SOS; 5 µM KRas1-169, 10 µM mantdGDP, 0.25 or 0.5 µM SOS): efficiently catalysed nucleotide exchange
- intrinsic nucleotide exchange rate (SOS; absence of SOS): drastically increased
